# Results: PubChem BioAssay AID2060902 (Molecular Pharmacology Branch, DTP, NCI, 2025)
# System: 485368-065-R3-J5-PDC spheroids with HUVEC/MSC, viability
# Test: Anticancer human tumor 485368-065-R3-J5-PDC patient-derived pancreatic carcinoma cell line growth inhibition [RAS]
# Details: for IC50: curve of first compound; for viability, T/C: stronger effect = lower value
# Summary of the method: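 Multi-cell-type spheroids: tumor cells plus HUVEC endothelial cells and mesenchymal stem cells. RAS-pathway inhibitors were combined with targeted agents, each dosed in half-log steps down from clinical Cmax, or from 10 microM when Cmax was unknown.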
# [1] = second compound 0.0316 µM, first compound 0.0316 µM
# [2] = second compound 0.0316 µM, first compound 0.1 µM
# [3] = second compound 0.0316 µM, first compound 0.316 µM
# [4] = second compound 0.0316 µM, first compound 1 µM
# [5] = second compound 0.0316 µM, first compound 3.16 µM
# [6] = second compound 0.0316 µM, first compound 10 µM
# [7] = second compound 0.1 µM, first compound 0.0316 µM
# [8] = second compound 0.1 µM, first compound 0.1 µM
# [9] = second compound 0.1 µM, first compound 0.316 µM
# [10] = second compound 0.1 µM, first compound 1 µM
# [11] = second compound 0.1 µM, first compound 3.16 µM
# [12] = second compound 0.1 µM, first compound 10 µM
# [13] = second compound 0.316 µM, first compound 0.0316 µM
# [14] = second compound 0.316 µM, first compound 0.1 µM
# [15] = second compound 0.316 µM, first compound 0.316 µM
# [16] = second compound 0.316 µM, first compound 1 µM
# [17] = second compound 0.316 µM, first compound 3.16 µM
# [18] = second compound 0.316 µM, first compound 10 µM
# [19] = second compound 1 µM, first compound 0.0316 µM
# [20] = second compound 1 µM, first compound 0.1 µM
# [21] = second compound 1 µM, first compound 0.316 µM
# [22] = second compound 1 µM, first compound 1 µM
# [23] = second compound 1 µM, first compound 3.16 µM
# [24] = second compound 1 µM, first compound 10 µM
# [25] = second compound 3.16 µM, first compound 0.0316 µM
# [26] = second compound 3.16 µM, first compound 0.1 µM
# [27] = second compound 3.16 µM, first compound 0.316 µM
# [28] = second compound 3.16 µM, first compound 1 µM
# [29] = second compound 3.16 µM, first compound 3.16 µM
# [30] = second compound 3.16 µM, first compound 10 µM
# [31] = second compound 10 µM, first compound 0.0316 µM
# [32] = second compound 10 µM, first compound 0.1 µM
# [33] = second compound 10 µM, first compound 0.316 µM
# [34] = second compound 10 µM, first compound 1 µM
# [35] = second compound 10 µM, first compound 3.16 µM
# [36] = second compound 10 µM, first compound 10 µM
# 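Note: spheroids exposed to agents for seven days before readout.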
smiles,measurement,setting,value
CCC(CC)c1cc(NC2CCC(N)C2)n2nccc2n1 (stereo not drawn) + C#Cc1c(F)ccc2cc(O)cc(-c3ncc4c(N5CC6CCC(C5)N6)nc(OCC56CCCN5CC(F)C6)nc4c3F)c12,IC50,second compound 0.0316 µM,2.03 µM
same,IC50,second compound 0.1 µM,1.94 µM
same,IC50,second compound 0.316 µM,2.01 µM
same,IC50,second compound 1 µM,1.98 µM
same,IC50,second compound 3.16 µM,1.83 µM
same,IC50,second compound 10 µM,1.25 µM
same,"viability, T/C",[1],108%
same,"viability, T/C",[2],116%
same,"viability, T/C",[3],110%
same,"viability, T/C",[4],147%
same,"viability, T/C",[5],4.74%
same,"viability, T/C",[6],7.01%
same,"viability, T/C",[7],107%
same,"viability, T/C",[8],95.8%
same,"viability, T/C",[9],109%
same,"viability, T/C",[10],129%
same,"viability, T/C",[11],4.21%
same,"viability, T/C",[12],7.06%
same,"viability, T/C",[13],99.4%
same,"viability, T/C",[14],105%
same,"viability, T/C",[15],114%
same,"viability, T/C",[16],152%
same,"viability, T/C",[17],5.79%
same,"viability, T/C",[18],7.25%
same,"viability, T/C",[19],91.1%
same,"viability, T/C",[20],109%
same,"viability, T/C",[21],121%
same,"viability, T/C",[22],138%
same,"viability, T/C",[23],4.74%
same,"viability, T/C",[24],6.22%
same,"viability, T/C",[25],86.7%
same,"viability, T/C",[26],83.8%
same,"viability, T/C",[27],96.9%
same,"viability, T/C",[28],128%
same,"viability, T/C",[29],4.66%
same,"viability, T/C",[30],6.53%
same,"viability, T/C",[31],47.2%
same,"viability, T/C",[32],42.1%
same,"viability, T/C",[33],61.7%
same,"viability, T/C",[34],93.3%
same,"viability, T/C",[35],3.14%
same,"viability, T/C",[36],6.12%
Cc1nc(N2CCC3(CC2)COC(C)C3N)c(CO)nc1Sc1ccnc(N)c1Cl (stereo not drawn) + C#Cc1c(F)ccc2cc(O)cc(-c3ncc4c(N5CC6CCC(C5)N6)nc(OCC56CCCN5CC(F)C6)nc4c3F)c12,IC50,second compound 0.0316 µM,> 10 µM
same,IC50,second compound 0.1 µM,> 10 µM
same,IC50,second compound 0.316 µM,1.91 µM
same,IC50,second compound 1 µM,0.821 µM
same,IC50,second compound 3.16 µM,0.106 µM
same,IC50,second compound 10 µM,< 0.0316 µM
same,"viability, T/C",[1],98.3%
same,"viability, T/C",[2],88.5%
same,"viability, T/C",[3],87.3%
same,"viability, T/C",[4],75.1%
same,"viability, T/C",[5],60%
same,"viability, T/C",[6],58.8%
same,"viability, T/C",[7],110%
same,"viability, T/C",[8],92.3%
same,"viability, T/C",[9],74%
same,"viability, T/C",[10],62.7%
same,"viability, T/C",[11],63.6%
same,"viability, T/C",[12],51.8%
same,"viability, T/C",[13],101%
same,"viability, T/C",[14],89.6%
same,"viability, T/C",[15],78.5%
same,"viability, T/C",[16],52.4%
same,"viability, T/C",[17],47.5%
same,"viability, T/C",[18],44%
same,"viability, T/C",[19],91.5%
same,"viability, T/C",[20],77.2%
same,"viability, T/C",[21],56.7%
same,"viability, T/C",[22],47.6%
same,"viability, T/C",[23],42.2%
same,"viability, T/C",[24],30%
same,"viability, T/C",[25],65.9%
same,"viability, T/C",[26],49.7%
same,"viability, T/C",[27],39.1%
same,"viability, T/C",[28],31.9%
same,"viability, T/C",[29],24.7%
same,"viability, T/C",[30],21.6%
same,"viability, T/C",[31],36.3%
same,"viability, T/C",[32],29.7%
same,"viability, T/C",[33],24.3%
same,"viability, T/C",[34],19.9%
same,"viability, T/C",[35],19.7%
same,"viability, T/C",[36],12.8%
NC1c2ccccc2OC12CCN(c1cnc3c(N4CCCc5ncccc54)n[nH]c3n1)CC2 (stereo not drawn) + C#Cc1c(F)ccc2cc(O)cc(-c3ncc4c(N5CC6CCC(C5)N6)nc(OCC56CCCN5CC(F)C6)nc4c3F)c12,IC50,second compound 0.0316 µM,> 10 µM
same,IC50,second compound 0.1 µM,2.38 µM
same,IC50,second compound 0.316 µM,1.02 µM
same,IC50,second compound 1 µM,0.117 µM
same,IC50,second compound 3.16 µM,< 0.0316 µM
same,IC50,second compound 10 µM,< 0.0316 µM
same,"viability, T/C",[1],82.1%
same,"viability, T/C",[2],79.2%
same,"viability, T/C",[3],70.9%
same,"viability, T/C",[4],66.3%
same,"viability, T/C",[5],72.1%
same,"viability, T/C",[6],55%
same,"viability, T/C",[7],76%
same,"viability, T/C",[8],72.9%
same,"viability, T/C",[9],61.7%
same,"viability, T/C",[10],60.7%
same,"viability, T/C",[11],44.2%
same,"viability, T/C",[12],43.9%
same,"viability, T/C",[13],69.9%
same,"viability, T/C",[14],61.6%
same,"viability, T/C",[15],58.6%
same,"viability, T/C",[16],54.4%
same,"viability, T/C",[17],35.5%
same,"viability, T/C",[18],28.8%
same,"viability, T/C",[19],60.3%
same,"viability, T/C",[20],47.4%
same,"viability, T/C",[21],43.4%
same,"viability, T/C",[22],37.9%
same,"viability, T/C",[23],28.9%
same,"viability, T/C",[24],18.9%
same,"viability, T/C",[25],40%
same,"viability, T/C",[26],33.7%
same,"viability, T/C",[27],27.5%
same,"viability, T/C",[28],23.7%
same,"viability, T/C",[29],17.8%
same,"viability, T/C",[30],17.5%
same,"viability, T/C",[31],23.3%
same,"viability, T/C",[32],20.3%
same,"viability, T/C",[33],17.9%
same,"viability, T/C",[34],14.2%
same,"viability, T/C",[35],13%
same,"viability, T/C",[36],12.8%
Nc1ccn(C2OC(CO)C(O)C2(F)F)c(=O)n1 (stereo not drawn) + C#Cc1c(F)ccc2cc(O)cc(-c3ncc4c(N5CC6CCC(C5)N6)nc(OCC56CCCN5CC(F)C6)nc4c3F)c12,IC50,second compound 0.0316 µM,0.00636 µM
same,IC50,second compound 0.1 µM,0.0063 µM
same,IC50,second compound 0.316 µM,0.00651 µM
same,IC50,second compound 1 µM,0.00609 µM
same,IC50,second compound 3.16 µM,0.00596 µM
same,IC50,second compound 10 µM,< 0.00316 µM
same,"viability, T/C","second compound 0.0316 µM, first compound 0.00316 µM",98.4%
same,"viability, T/C","second compound 0.0316 µM, first compound 0.01 µM",18.8%
same,"viability, T/C",[1],8.96%
same,"viability, T/C",[2],11.8%
same,"viability, T/C",[3],11.1%
same,"viability, T/C",[4],14.4%
same,"viability, T/C","second compound 0.1 µM, first compound 0.00316 µM",93.6%
same,"viability, T/C","second compound 0.1 µM, first compound 0.01 µM",20.7%
same,"viability, T/C",[7],10.9%
same,"viability, T/C",[8],9.95%
same,"viability, T/C",[9],11.6%
same,"viability, T/C",[10],12.8%
same,"viability, T/C","second compound 0.316 µM, first compound 0.00316 µM",94.5%
same,"viability, T/C","second compound 0.316 µM, first compound 0.01 µM",23.5%
same,"viability, T/C",[13],10.9%
same,"viability, T/C",[14],10.3%
same,"viability, T/C",[15],11.8%
same,"viability, T/C",[16],11.8%
same,"viability, T/C","second compound 1 µM, first compound 0.00316 µM",90.4%
same,"viability, T/C","second compound 1 µM, first compound 0.01 µM",19.5%
same,"viability, T/C",[19],12.1%
same,"viability, T/C",[20],8.97%
same,"viability, T/C",[21],10.8%
same,"viability, T/C",[22],11%
same,"viability, T/C","second compound 3.16 µM, first compound 0.00316 µM",89%
same,"viability, T/C","second compound 3.16 µM, first compound 0.01 µM",18.3%
same,"viability, T/C",[25],9.24%
same,"viability, T/C",[26],9.65%
same,"viability, T/C",[27],9.37%
same,"viability, T/C",[28],9.7%
same,"viability, T/C","second compound 10 µM, first compound 0.00316 µM",37.7%
same,"viability, T/C","second compound 10 µM, first compound 0.01 µM",20.8%
same,"viability, T/C",[31],8.12%
same,"viability, T/C",[32],7.5%
same,"viability, T/C",[33],8.95%
same,"viability, T/C",[34],9.6%
